Source: patent US20240262819A1, “NOVEL COMPOUNDS HAVING INHIBITORY ACTIVITY AGAINST GLUCOSYLCERAMIDE SYNTHASE OR PHARMACEUTICALLY ACCEPTABLE SALT THEREOF, PROCESSES FOR PREPARING THE SAME, AND PHARMACEUTICAL COMPOSITIONS COMPRISING THE SAME” (YUHAN CORPORATION, priority 2021, published 2024)
pIC50: −log10 of the molar value. Where two headings read alike, the source gives them in different places.

Assays:
[1] = biological target: glucosylceramide synthase (GCS) (Homo sapiens (Human), UniProt Q16739); test: Evaluation of inhibitory activities against GCS (A549 cell lysate, NBD C6-ceramide, HPLC); assay type: biochemical
glucosylceramide synthase (GCS), sequence (Q16739 whole entry): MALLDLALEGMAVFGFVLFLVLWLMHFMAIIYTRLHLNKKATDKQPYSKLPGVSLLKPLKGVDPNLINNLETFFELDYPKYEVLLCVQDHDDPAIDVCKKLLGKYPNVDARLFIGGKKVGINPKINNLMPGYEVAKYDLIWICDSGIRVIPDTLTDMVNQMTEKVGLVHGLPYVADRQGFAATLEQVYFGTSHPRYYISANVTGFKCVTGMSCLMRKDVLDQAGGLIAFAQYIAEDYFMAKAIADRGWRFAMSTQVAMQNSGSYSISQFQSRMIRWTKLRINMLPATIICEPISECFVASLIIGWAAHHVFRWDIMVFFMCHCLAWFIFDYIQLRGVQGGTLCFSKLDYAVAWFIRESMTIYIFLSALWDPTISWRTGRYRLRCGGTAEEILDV
Description: The inhibitory activities of the compounds of the present invention against GCS were evaluated, as follows, according to the method described in the known literature (Hayashi Y et al., A sensitive and reproducible assay to measure the activity of glucosylceramide synthase and lactosylceramide synthase using HPLC and fluorescent substrates, Analytical Biochemistry 345 (2005) 181-186). Ibiglustat, known as a GCS inhibitor, was used as a control.
After the cells attached to the culture dish were washed with phosphate buffered saline (PBS), the cells were scraped off with a cell scraper and then centrifuged (4000 rpm, 3 min, 4 °C) to collect the cells in a 50 ml tube. The cell pellets were suspended in a lysis buffer (50 mM HEPES, pH 7.3, containing 1× the protease/phosphatase inhibitor cocktail), lysed by sonication, and then the lysate was centrifuged (13000 rpm, 10 min, 4° C.). The obtained supernatant was used for the quantitative analysis of proteins. The amount of proteins was measured using the BCA protein assay kit, using bovine serum albumin as a standard.
Enzymatic reactions were initiated by sequentially adding the following reaction materials to a 96 deep-well plate. Thereafter, the enzymatic reactions were performed at 37° C. for 90 minutes.
The enzymatic reactions were stopped by adding 100 μl of chloroform/methanol (2:1, v/v). […] The lower layer (50 μl) was transferred to a new 96 deep-well plate and dried with a reduced concentrator.
Lipids were dissolved in 100 μl of isopropyl alcohol/n-hexane/H2O (55:44:1, v/v/v) and then transferred to a glass vial for HPLC (Agilent, 8004-HP-H/i3u). The sample (100 μl) was automatically loaded onto a normal-phase column (Intersil SIL 150A-5, 4.6×250 mm, GL Sciences, Japan) and then eluted at a flow rate of 2.0 ml/min with isopropyl alcohol/n-hexane/H2O (55:44:1, v/v/v). The fluorescence thereof was measured with a fluorescence detector (Agilent, 1260 FLD Spectra), using 470 nm and 530 nm as excitation and emission wavelengths, respectively.
Data analysis was performed by the following equations.
% Area (Sample)=Area (GlcCer)/[Area (Cer)+Area (GlcCer)]×100%
GCS activity=[Area (Sample)−Area (ibiglustat)]/[Area (DMSO)−Area (ibiglustat)]×100
The obtained % GCS activity data was analyzed with the software GraphPad Prism (Ver 5.01) to calculate the IC50 values.

[2] = tested on: GM1 production in Jurkat cells; test: cells; assay type: cell-based
[3] = Evaluation of blood-brain barrier (BBB) permeability through oral administration; assay type: in vivo, mice; details: mouse, in vivo, mice, oral, dose 30 mg/kg, 4 hr; for Kp at 4 h: read-out: Mean brain-plasma drug ratio at 4 hr
Description: The blood-brain barrier (BBB) permeability was evaluated in mice, with respect to the compounds according to the present invention and the control (ibiglustat). Each compound of the present invention and the control were suspended in 0.5% methyl cellulose containing 0.2% Tween 80 and then orally administered to mice at a dose of 10 or 30 mg/10 ml/kg. After the whole blood was collected from the heart of each mouse at the time of 4 hours after the administration, it was placed in a lithium heparin tube and immediately centrifuged to obtain the plasma. After the exsanguination was carried out through abdominal vena cava incision, the forebrain was taken by dissection of the head. Both of the forebrain and the plasma were stored in a −80° C. freezer until the analysis of drug concentrations therein. For the analysis of drug concentrations therein, the forebrain was immersed in distilled water and then homogenized with a homogenizer to obtain a homogenate. Each plasma and homogenate was treated with acetonitrile to precipitate proteins, vortexed for 15 seconds, and then centrifuged (12700 rpm, 10 min, 4° C.). The obtained supernatant was diluted with an 80% aqueous solution of acetonitrile containing 0.1% formic acid and then analyzed with an LC-MS/MS instrument. LC-MS/MS analysis was carried out with a reversed-phase column, using distilled water containing 0.1% formic acid and acetonitrile as mobile phases. Each eluted material was detected through a mass spectrometer to calculate the drug concentrations thereof. The brain-plasma drug ratio (B/P ratio) was calculated from the drug concentrations in each tissue to evaluate the blood-brain barrier (BBB) permeability.

[4] = % GCS activity, A549 cell lysate, 37° C. for 90 minutes, read-out: IC50
[5] = read-out: Mean drug concentrations in brain tissue at 4 hr
[6] = read-out: Mean drug concentrations in plasma at 4 hr

SMILES	pIC50 [1]	pIC50 ([2]; Homo sapiens, Jurkat, 72 h)	other results
CCc1ccc(-c2ccc3c(c2)CC(C)(C)[C@H]3NC(=O)O[C@@H]2CN3CCC2CC3)cc1F [Example 33, (S)-quinuclidin-3-yl((R)-5-(4-ethyl-3-fluorophenyl)-2,2-dimethyl-2,3-dihydro-1H-inden-1-yl)carbamate]	9.01	8.14	–
CC(C)Oc1c(F)cc(-c2ccc3c(c2)CC(C)(C)[C@H]3NC(=O)O[C@@H]2CN3CCC2CC3)cc1F [Example 37, (S)-quinuclidin-3-yl((R)-5-(3,5-difluoro-4-isopropoxyphenyl)-2,2-dimethyl-2,3-dihydro-1H-inden-1-yl)carbamate]	8.71	8.66	–
CC(C)Oc1c(Cl)cc(-c2ccc3c(c2)CC(C)(C)[C@H]3NC(=O)O[C@@H]2CN3CCC2CC3)cc1Cl [Example 40, (S)-quinuclidin-3-yl((R)-5-(3,5-dichloro-4-isopropoxyphenyl)-2,2-dimethyl-2,3-dihydro-1H-inden-1-yl)carbamate]	8.49	8.80	–
CC(C)(C)Oc1ccc(-c2ccc3c(c2)CC(C)(C)[C@H]3NC(=O)O[C@@H]2CN3CCC2CC3)cc1 [Example 41, (S)-quinuclidin-3-yl((R)-5-(4-(tert-butoxy)phenyl)-2,2-dimethyl-2,3-dihydro-1H-inden-1-yl)carbamate]	9.05	7.87	–
CC(C)(C)Oc1ccc(-c2ccc3c(c2)CC(C)(C)[C@H]3NC(=O)O[C@@H]2CN3CCC2CC3)c(Cl)c1 [Example 42, (S)-quinuclidin-3-yl((R)-5-(4-(tert-butoxy)-2-chlorophenyl)-2,2-dimethyl-2,3-dihydro-1H-inden-1-yl)carbamate]	9.52	8.59	–
CCOc1ccc(-c2ccc3c(c2)CC(C)(C)[C@H]3NC(=O)O[C@@H]2CN3CCC2CC3)cc1C [Example 46, (S)-quinuclidin-3-yl((R)-5-(4-ethoxy-3-methylphenyl)-2,2-dimethyl-2,3-dihydro-1H-inden-1-yl)carbamate]	8.66	7.94	–
CCCOc1ccc(-c2ccc3c(c2)CC(C)(C)[C@H]3NC(=O)O[C@@H]2CN3CCC2CC3)cc1C [Example 47, (S)-quinuclidin-3-yl((R)-2,2-dimethyl-5-(3-methyl-4-propoxyphenyl)-2,3-dihydro-1H-inden-1-yl) carbamate]	–	–	pIC50 [1, 4]: 8.72; pIC50 ([2]; read-out: IC50): 8.11
Cc1cc(-c2ccc3c(c2)CC(C)(C)[C@H]3NC(=O)O[C@@H]2CN3CCC2CC3)ccc1OC(F)F [Example 48, (S)-quinuclidin-3-yl((R)-5-(4-(difluoromethoxy)-3-methylphenyl)-2,2-dimethyl-2,3-dihydro-1H-inden-1-yl)carbamate]	8.89	7.86	–
CC(C)Oc1cc(F)cc(-c2ccc3c(c2)CC(C)(C)[C@H]3NC(=O)O[C@@H]2CN3CCC2CC3)c1 [Example 49, (S)-quinuclidin-3-yl((R)-5-(3-fluoro-5-isopropoxyphenyl)-2,2-dimethyl-2,3-dihydro-1H-inden-1-yl)carbamate]	9.24	8.03	–
CC(C)COc1cc(F)cc(-c2ccc3c(c2)CC(C)(C)[C@H]3NC(=O)O[C@@H]2CN3CCC2CC3)c1 [Example 50, (S)-quinuclidin-3-yl((R)-5-(3-fluoro-5-isobutoxyphenyl)-2,2-dimethyl-2,3-dihydro-1H-inden-1-yl)carbamate]	9.36	8.66	–
CC1(C)Cc2cc(-c3cc(F)cc(OCC(F)(F)F)c3)ccc2[C@@H]1NC(=O)O[C@@H]1CN2CCC1CC2 [Example 51, (S)-quinuclidin-3-yl((R)-5-(3-fluoro-5-(2,2,2-trifluoroethoxy)phenyl)-2,2-dimethyl-2,3-dihydro-1H-inden-1-yl) carbamate]	–	–	pIC50 [1, 4]: 9.19; pIC50 ([2]; read-out: IC50): 8.04
CC(C)Oc1cc(-c2ccc3c(c2)CC(C)(C)[C@H]3NC(=O)O[C@@H]2CN3CCC2CC3)ccc1Cl [Example 52, (S)-quinuclidin-3-yl((R)-5-(4-chloro-3-isopropoxyphenyl)-2,2-dimethyl-2,3-dihydro-1H-inden-1-yl)carbamate]	8.08	7.44	–
CC(C)COc1cc(Cl)cc(-c2ccc3c(c2)CC(C)(C)[C@H]3NC(=O)O[C@@H]2CN3CCC2CC3)c1 [Example 53, (S)-quinuclidin-3-yl((R)-5-(3-chloro-5-isobutoxyphenyl)-2,2-dimethyl-2,3-dihydro-1H-inden-1-yl)carbamate]	9.17	8.39	–
CC(C)Oc1cc(Cl)cc(-c2ccc3c(c2)CC(C)(C)[C@H]3NC(=O)O[C@@H]2CN3CCC2CC3)c1 [Example 54, (S)-quinuclidin-3-yl((R)-5-(3-chloro-5-isopropoxyphenyl)-2,2-dimethyl-2,3-dihydro-1H-inden-1-yl)carbamate]	9.23	8.07	–
CC1(C)Cc2cc(-c3ccc(OCC(F)(F)F)cc3Cl)ccc2[C@@H]1NC(=O)O[C@@H]1CN2CCC1CC2 [Example 55, (S)-quinuclidin-3-yl((R)-5-(2-chloro-4-(2,2,2-trifluoroethoxy)phenyl)-2,2-dimethyl-2,3-dihydro-1H-inden-1-yl)carbamate]	9.20	8.66	–
CCCOc1ccc(-c2cc3c(cc2F)[C@H](NC(=O)O[C@@H]2CN4CCC2CC4)C(C)(C)C3)cc1 [Example 69, (S)-quinuclidin-3-yl((R)-6-fluoro-2,2-dimethyl-5-(4-propoxyphenyl)-2,3-dihydro-1H-inden-1-yl)carbamate]	–	8.96	Kp at 4 h [3]: 9.84; concentration at 4 h [3, 5]: 4140 ng/g; concentration at 4 h [3, 6]: 433 ng/mL
CCCc1cccc(-c2cc3c(cc2F)[C@H](NC(=O)O[C@@H]2CN4CCC2CC4)C(C)(C)C3)c1 [Example 72, (S)-quinuclidin-3-yl((R)-6-fluoro-2,2-dimethyl-5-(3-propylphenyl)-2,3-dihydro-1H-inden-1-yl)carbamate]	8.92	7.80	–
COc1ccc(-c2cc3c(cc2F)[C@H](NC(=O)O[C@@H]2CN4CCC2CC4)C(C)(C)C3)cc1 [Example 82, (S)-quinuclidin-3-yl((R)-6-fluoro-5-(4-methoxyphenyl)-2,2-dimethyl-2,3-dihydro-1H-inden-1-yl)carbamate]	–	7.69	Kp at 4 h [3]: 6.32; concentration at 4 h [3, 5]: 5520 ng/g; concentration at 4 h [3, 6]: 896 ng/mL
COc1ccc(-c2cc3c(cc2F)[C@H](NC(=O)O[C@@H]2CN4CCC2CC4)C(C)(C)C3)cc1Cl [Example 85, (S)-quinuclidin-3-yl((R)-5-(3-chloro-4-methoxyphenyl)-6-fluoro-2,2-dimethyl-2,3-dihydro-1H-inden-1-yl)carbamate]	9.09	7.18	–
CCOc1ccc(-c2cc3c(cc2F)[C@H](NC(=O)O[C@@H]2CN4CCC2CC4)C(C)(C)C3)cc1F [Example 90, (S)-quinuclidin-3-yl((R)-5-(4-ethoxy-3-fluorophenyl)-6-fluoro-2,2-dimethyl-2,3-dihydro-1H-inden-1-yl)carbamate]	–	7.58	Kp at 4 h [3]: 7.42; concentration at 4 h [3, 5]: 6480 ng/g; concentration at 4 h [3, 6]: 874 ng/mL
COc1ccc(-c2cc3c(cc2F)[C@H](NC(=O)O[C@@H]2CN4CCC2CC4)C(C)(C)C3)c(Cl)c1 [Example 103, (S)-quinuclidin-3-yl((R)-5-(2-chloro-4-methoxyphenyl)-6-fluoro-2,2-dimethyl-2,3-dihydro-1H-inden-1-yl)carbamate]	–	8.25	Kp at 4 h [3]: 2.76; concentration at 4 h [3, 5]: 4680 ng/g; concentration at 4 h [3, 6]: 1700 ng/mL
